In patent US20180333491A1 (Sinotau Pharmaceuticals Group, priority 2015, published 2018):
Marks after values point to notes of the source that are not given here.

Key:
[1] = system: human pancreatic cancer tumor cells MIA-PaCa-2; experiment: MIA-PaCa-2 subcutaneous model; conditions: for Tumor Volume (cm^3) Mean ± SEM: 34 days of treatment; for bodyweights: MIA-PaCa-2 model, over the treatment time; for Time of tumor volume changed significantly: days after first treatment; for Tumor weight (g) Mean ± SEM: end of experiment
Protocol: (§7) The bodyweight and major/minor axis of the mice were measured twice a week, and the tumor volumes were calculated using the formula: Tumor volume=1/2×major axis×minor axis. […] “T” represents average tumor volume of the experimental group (cm^3), and “C” represents average tumor volume of the control group (cm^3). The animals were monitored at all times. The bodyweight and major/minor axis or mice were measured twice a week. When the experiments were concluded, mice were sacrificed and tumors were extracted and weighted.
(§8) Tumor volumes were represented with average ±standard error. Data analysis was done using Spss16.0, One-Way ANOVA, LSD (homogeneity of variance) or Dunnett T3 (non-homogeneity of variance). […] P<0.05 represents significant difference.

[2] = system: human colon cancer tumor cells Widr; experiment: WiDr subcutaneous model; format: in vivo, nude mice; conditions: for Tumor Volume (cm^3) Mean ± SEM / TGI (Calculated using tumor volume): Day 27 after treatment; for TGI (Calculated using tumor volume): listed as HuTB006; for Tumor weight (g) Mean ± SEM: end of experiment
Protocol: (§1) Tumor cells (i.e., MIA-PaCa-2, WiDr, H2122, colo205) were inoculated in nude mice's flank at 5×10^6 cells per mouse. The mice were grouped when the average volume of tumors reached about 100˜200 mm^3. “QW”=weekly dose. “Q3d”=dosed every third day. “BiW”=biweekly.
(§2) The bodyweight and major/minor axis of the mice were measured twice a week, and the tumor volumes were calculated using the formula: Tumor volume=1/2×major axis[…]. […] “T” represents average tumor volume of the experimental group (cm^3), and “C” represents average tumor volume of the control group (cm^3). The animals were monitored at all times. The bodyweight and major/minor axis or mice were measured twice a week.
(§3) Tumor volumes were represented with average ±standard error. […] P<0.05 represents significant difference.

[3] = molecular target: T1, DcR2 (recombinant human TRAIL R4/TNFRSF10D) (Homo sapiens, UniProt Q9UBN6); experiment: CLEIA binding specificity; conditions: DcR2-His coated; antibody 200, 40 and 8 ng/mL
T1 construct: His; purchased Sino Biological Lot: LC06JU1502
T1 sequence (Q9UBN6 56-386): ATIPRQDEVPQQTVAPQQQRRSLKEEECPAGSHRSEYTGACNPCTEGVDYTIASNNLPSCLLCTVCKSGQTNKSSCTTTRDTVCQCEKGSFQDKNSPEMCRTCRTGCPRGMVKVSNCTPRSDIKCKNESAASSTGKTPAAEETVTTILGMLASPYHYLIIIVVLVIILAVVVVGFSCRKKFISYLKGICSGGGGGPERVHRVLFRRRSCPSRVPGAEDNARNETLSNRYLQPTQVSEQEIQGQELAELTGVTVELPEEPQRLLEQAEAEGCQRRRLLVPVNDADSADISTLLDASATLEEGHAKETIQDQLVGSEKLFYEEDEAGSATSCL
Protocol: (§4) The binding specificity of HuCTB006 was evaluated by chemiluminescent enzyme immunoassay (CLEIA).
(§5) HuCTB006 was diluted into 200, 40 and 8 ng/mL and then added to the wells. After 1 hour incubation in 37° C., the plate was washed. The binding of HuCTB006 with immobilized antigens was detected with HRP labeled secondary antibody and a substrate solution.

[4] = molecular target: T2, OPG (recombinant human osteroprotegerin/TNFRSF11B) (Homo sapiens, UniProt O00300); experiment: CLEIA binding specificity; conditions: OPG-His coated; antibody 200, 40 and 8 ng/mL
T2 construct: His; purchased Wuxi Pharmatech Co. Ltd Lot: 20120717
T2 sequence (O00300 22-401): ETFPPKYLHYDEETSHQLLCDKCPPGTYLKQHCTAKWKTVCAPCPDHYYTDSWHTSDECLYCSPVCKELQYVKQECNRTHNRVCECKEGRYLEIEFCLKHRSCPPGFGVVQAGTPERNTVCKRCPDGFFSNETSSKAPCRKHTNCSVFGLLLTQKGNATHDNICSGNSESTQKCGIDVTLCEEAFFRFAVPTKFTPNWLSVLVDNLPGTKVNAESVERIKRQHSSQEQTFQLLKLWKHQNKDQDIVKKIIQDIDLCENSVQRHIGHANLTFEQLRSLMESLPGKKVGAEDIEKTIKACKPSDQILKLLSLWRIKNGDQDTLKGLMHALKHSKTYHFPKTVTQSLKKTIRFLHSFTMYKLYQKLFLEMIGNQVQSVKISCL
Protocol: as §4, §5

[5] = molecular target: T3, DcR1 (recombinant human TRAIL R3/TNFRSF10C) (Homo sapiens, UniProt O14798); experiment: CLEIA binding specificity; conditions: DcR1-His coated; antibody 200, 40 and 8 ng/mL
T3 construct: His; purchased Novoprotein Science Lot: 0328670
T3 sequence (O14798 26-236): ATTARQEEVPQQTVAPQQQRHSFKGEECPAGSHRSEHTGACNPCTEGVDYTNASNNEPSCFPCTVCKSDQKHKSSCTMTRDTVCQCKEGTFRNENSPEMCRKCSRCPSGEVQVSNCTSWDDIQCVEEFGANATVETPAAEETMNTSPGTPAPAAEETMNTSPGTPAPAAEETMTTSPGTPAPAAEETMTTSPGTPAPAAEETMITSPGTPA
Protocol: as §4, §5

[6] = molecular target: T4, DR4 (Homo sapiens, UniProt O00220); experiment: CLEIA binding specificity; conditions: DR4-His-EC coated; antibody 200, 40 and 8 ng/mL
T4 construct: His; Lot: 090222-P; host or cells: E. coli
Protocol: as §4, §5

[7] = system: COLO205; experiment: Cytotoxicity on human tumor cell lines (ATPLite); format: cell-based
Protocol: (§6) Eighteen human tumor cell lines were treated with 62.5, 125, 250, 500, or 1000 ng/mL HuCTB006 or different concentrations of chemotherapy drugs, which act as positive controls. […] The culture medium for SK-Hep-1, HepG2, HCT116, SW480, WiDr (1×NEAA), MIA-PaCa-2 (2.5% Horse serum) MDA-MB-231 (1 mM NaPyr, 1×MEM-NEAA, 1×MEM VITAMIN) was DMEM. The culture medium for COLO205, BXPC3 (2 mM glutamin, 10 mM HEPES), Panc2.03 (15FBS, 1 mM NaPyr, 1×MEM-NEAA, […], 10 mM HEPES), H2122, OVCAR3 (1 mM NaPyr, 10 ug/ml human insulin, 10 mM HEPES, 2.5 g/L glucose), Molt-4 (HEPES, 2.5 g/l glocose), Jurkat (HEPES, 2.5 g/l glocose) was RPMI-1640, the culture medium for SK-MES-1 was Eagle's MEM, the culture medium for 2-LMP and DY36T2 was IMEM, and the culture medium for SUM102 (5 ug/ml insulin) was F-12K. The cell viability was determined by ATPLite Assay Kit. If the IC50 value was lower than 62.5 ng/mL, the cells were treated with higher concentration of CTB006 in the second round of experiments to determine IC50 value.

[8] = system: BXPC3; experiment: Cytotoxicity on human tumor cell lines (ATPLite); format: cell-based
Protocol: as §6

[9] = system: MDA-MB-231; experiment: Cytotoxicity on human tumor cell lines (ATPLite); format: cell-based
Protocol: as §6

[10] = system: Jurkat; experiment: Cytotoxicity on human tumor cell lines (ATPLite); format: cell-based
Protocol: as §6

[11] = system: human lung cancer tumor cells H2122; experiment: H2122 subcutaneous model; conditions: for Tumor Volume (cm^3) Mean ± SEM: Day 38 after treatment; for Tumor weight (g) Mean ± SEM: end of experiment
Protocol: as §7, §8

[12] = system: human colon cancer tumor cells Colo205; experiment: Colo205 subcutaneous model; format: in vivo, nude mice; conditions: for Tumor Volume (cm^3) Mean ± SEM / TGI (Calculated using tumor volume): Day 28 after treatment; for Time of tumor volume changed significantly: days after first treatment; for Tumor weight (g) Mean ± SEM / TGI (Calculated using tumor weight): end of experiment
Protocol: as §1, §2, §3

[13] = HuCTB006 0.6 mg/kg i.v., 0.6 mg/kg
[14] = HuCTB006 1.8 mg/kg i.v., 1.8 mg/kg
[15] = HuCTB006 5.4 mg/kg i.v., 5.4 mg/kg

## Nc1ccn([C@@H]2O[C@H](CO)[C@@H](O)C2(F)F)c(=O)n1 [Gemcitabine, reference compound]
[1]; Gemcitabine 60 mg/kg i.p.
  Tumor Volume (cm^3) Mean ± SEM: 1.60 ± 0.11 cm^3
[1]
  bodyweights: decreased significantly by the third dosing
[1]; first experiment
  tumor regression: not found
[1]; repeated experiment
  tumor regression: not found

## HuCTB006: Monospecific humanized chimeric monoclonal antibody directed to TRAIL-R2 receptor; heavy chain SEQ ID NO: 16, light chain SEQ ID NO: 14
[2]; HuCTB006 0.07 mg/kg i.v.
  Tumor Volume (cm^3) Mean ± SEM: 1.76 ± 0.18 cm^3
  TGI (Calculated using tumor volume): 6.61%^1
  Tumor weight (g) Mean ± SEM: 1.29 ± 0.18 g
[2]; HuCTB006 0.22 mg/kg i.v.
  Tumor Volume (cm^3) Mean ± SEM: 1.54 ± 0.18 cm^3
  TGI (Calculated using tumor volume): 18.71%^ac
  Tumor weight (g) Mean ± SEM: 1.16 ± 0.13 g
[2]; HuCTB006 0.67 mg/kg i.v.
  Tumor Volume (cm^3) Mean ± SEM: 0.96 ± 0.10 cm^3
  Tumor weight (g) Mean ± SEM: 0.68 ± 0.08 g
[2]; HuCTB006 2 mg/kg i.v.
  Tumor Volume (cm^3) Mean ± SEM: 0.80 ± 0.11 cm^3
  Tumor weight (g) Mean ± SEM: 0.53 ± 0.08 g
[3]
  cross-reaction with coated antigen (CLEIA): no cross-reaction
[4]
  cross-reaction with coated antigen (CLEIA): no cross-reaction
[5]
  cross-reaction with coated antigen (CLEIA): no cross-reaction
[6]
  cross-reaction with coated antigen (CLEIA): no cross-reaction
[7]
  IC50: ~0.01 µg/mL
[8]
  IC50: ~0.01 µg/mL
[9]
  IC50: ~0.01 µg/mL
[10]
  IC50: ~0.01 µg/mL
[11]; HuCTB006 0.2 mg/kg i.v.
  Tumor Volume (cm^3) Mean ± SEM: 1.85 ± 0.15 cm^3
  Tumor weight (g) Mean ± SEM: 1.54 ± 0.09 g
[11]; HuCTB006 0.6 mg/kg i.v.
  Tumor Volume (cm^3) Mean ± SEM: 1.02 ± 0.31 cm^3
  Tumor weight (g) Mean ± SEM: 0.89 ± 0.29 g
[11]; HuCTB006 1.8 mg/kg i.v.
  Tumor Volume (cm^3) Mean ± SEM: 0.16 ± 0.16 cm^3
  Tumor weight (g) Mean ± SEM: 0.12 ± 0.12 g
[11]; HuCTB006 5.4 mg/kg i.v.
  Tumor Volume (cm^3) Mean ± SEM: 0.18 ± 0.18 cm^3
  Tumor weight (g) Mean ± SEM: 0.19 ± 0.18 g
[12]; HuCTB006 0.2 mg/kg i.v.
  Tumor Volume (cm^3) Mean ± SEM: 1.24 ± 0.20 cm^3
  Time of tumor volume changed significantly: 10 days
  Tumor weight (g) Mean ± SEM: 0.84 ± 0.14 g
[12]; HuCTB006 0.6 mg/kg i.v.
  TGI (Calculated using tumor volume): 84.78%
  Tumor Volume (cm^3) Mean ± SEM: 0.29 ± 0.13 cm^3
  TGI (Calculated using tumor weight): 84.07%
  Tumor weight (g) Mean ± SEM: 0.20 ± 0.10 g
[12]; [13]
  TGI (Calculated using tumor volume): 84.78%*
  TGI (Calculated using tumor weight): 84.07%*
[12]; HuCTB006 1.8 mg/kg i.v.
  TGI (Calculated using tumor volume): 80.07%
  Tumor Volume (cm^3) Mean ± SEM: 0.38 ± 0.16 cm^3
  TGI (Calculated using tumor weight): 81.78%
  Tumor weight (g) Mean ± SEM: 0.23 ± 0.12 g
[12]; [14]
  TGI (Calculated using tumor volume): 80.07%*
  TGI (Calculated using tumor weight): 81.78%*
[12]; HuCTB006 5.4 mg/kg i.v.
  TGI (Calculated using tumor volume): 85.24%
  Tumor Volume (cm^3) Mean ± SEM: 0.28 ± 0.10 cm^3
  Time of tumor volume changed significantly: 7~10^2 days
  TGI (Calculated using tumor weight): 88.15%
  Tumor weight (g) Mean ± SEM: 0.15 ± 0.07 g
[12]; [15]
  TGI (Calculated using tumor volume): 85.24%*
  TGI (Calculated using tumor weight): 88.15%*
[1]; HuCTB006 0.2 mg/kg i.v.
  Tumor Volume (cm^3) Mean ± SEM: 1.76 ± 0.15 cm^3
  Time of tumor volume changed significantly: 13 days
  Tumor weight (g) Mean ± SEM: 0.79 ± 0.07 g
[1]; HuCTB006 0.6 mg/kg i.v.
  Tumor Volume (cm^3) Mean ± SEM: 1.27 ± 0.43 cm^3
  Tumor weight (g) Mean ± SEM: 0.54 ± 0.21 g
[1]; HuCTB006 1 mg/kg i.v.
  Tumor Volume (cm^3) Mean ± SEM: 0.88 ± 0.35 cm^3
  Tumor weight (g) Mean ± SEM: 0.37 ± 0.19 g
[1]; HuCTB006 10 mg/kg i.v.
  Tumor Volume (cm^3) Mean ± SEM: 0.76 ± 0.22 cm^3
  Time of tumor volume changed significantly: 7^2 days
  Tumor weight (g) Mean ± SEM: 0.19 ± 0.08 g
[1]
  bodyweights: slow increase
